Laboratory results reported in patent publication US8030487B2, “2-amino—5-substituted pyrimidine inhibitors” (TargeGen, Inc., priority 2006, dated 2011).

Tests used:
human c-Src = biological target: T1, human c-Src (Homo sapiens, UniProt P12931); assay: Src kinase inhibition (KinaseGlo residual ATP); format: biochemical; details: ATP 3 μM, 90 min room temperature
T1 construct: purchased Panvera/Invitrogen
Description: (§1) The ability of compounds of the present invention to inhibit the activity of various groups of kinases was tested. Kinases that were tested are described below. All kinase reactions were conducted in 96-well plates with a final reaction volume of 50 μl.
Recombinant human c-Src or Yes, or Fyn, or Lck (28 ng/well, Panvera/Invitrogen, Madison Wis.), ATP (3 μM), a tyrosine kinase substrate (PTK2, 250 μM, Promega Corp., Madison Wis.), and test agents (at concentrations ranging from about 1 nM/l to about 100 μM/l), in the presence of Src kinase reaction buffer (Upstate USA, Lake Placid N.Y.). After reacting for about 90 minutes at room temperature, residual ATP was determined using a luciferase-based assay (KinaseGlo, Promega Corp.) as a measure of kinase activity. Data from four wells were then averaged and used to determine IC50 values for the test compounds (Prism software package, GraphPad Software, San Diego Calif.).

VEGFR2 = biological target: T2, VEGFR2 (Homo sapiens, UniProt P35968); assay: VEGFR2 kinase inhibition (residual ATP luminescence); format: biochemical; details: 1.5 uM ATP, 60 min 37° C.
T2 construct: purchased Cell Signaling/ProQinase
Description: as §1
EGFR and VEGFR2 kinase assays were similarly performed. EGFR (76 ng/well, Panvera/Invitrogen) was combined with 12.5 mg/ml poly(glu4tyr) (Sigma) and 2.5 uM ATP. VEGFR2 (14.1 U/well, Cell Signaling/ProQinase) was used with 0.3 mg/ml poly(glu4tyr) and 1.5 uM ATP. Both were incubated for 60 minutes at 37° C., and the residual ATP was measured via luminescence, per the procedure described above.

T2 sequence (P35968 20-1356, species assumed): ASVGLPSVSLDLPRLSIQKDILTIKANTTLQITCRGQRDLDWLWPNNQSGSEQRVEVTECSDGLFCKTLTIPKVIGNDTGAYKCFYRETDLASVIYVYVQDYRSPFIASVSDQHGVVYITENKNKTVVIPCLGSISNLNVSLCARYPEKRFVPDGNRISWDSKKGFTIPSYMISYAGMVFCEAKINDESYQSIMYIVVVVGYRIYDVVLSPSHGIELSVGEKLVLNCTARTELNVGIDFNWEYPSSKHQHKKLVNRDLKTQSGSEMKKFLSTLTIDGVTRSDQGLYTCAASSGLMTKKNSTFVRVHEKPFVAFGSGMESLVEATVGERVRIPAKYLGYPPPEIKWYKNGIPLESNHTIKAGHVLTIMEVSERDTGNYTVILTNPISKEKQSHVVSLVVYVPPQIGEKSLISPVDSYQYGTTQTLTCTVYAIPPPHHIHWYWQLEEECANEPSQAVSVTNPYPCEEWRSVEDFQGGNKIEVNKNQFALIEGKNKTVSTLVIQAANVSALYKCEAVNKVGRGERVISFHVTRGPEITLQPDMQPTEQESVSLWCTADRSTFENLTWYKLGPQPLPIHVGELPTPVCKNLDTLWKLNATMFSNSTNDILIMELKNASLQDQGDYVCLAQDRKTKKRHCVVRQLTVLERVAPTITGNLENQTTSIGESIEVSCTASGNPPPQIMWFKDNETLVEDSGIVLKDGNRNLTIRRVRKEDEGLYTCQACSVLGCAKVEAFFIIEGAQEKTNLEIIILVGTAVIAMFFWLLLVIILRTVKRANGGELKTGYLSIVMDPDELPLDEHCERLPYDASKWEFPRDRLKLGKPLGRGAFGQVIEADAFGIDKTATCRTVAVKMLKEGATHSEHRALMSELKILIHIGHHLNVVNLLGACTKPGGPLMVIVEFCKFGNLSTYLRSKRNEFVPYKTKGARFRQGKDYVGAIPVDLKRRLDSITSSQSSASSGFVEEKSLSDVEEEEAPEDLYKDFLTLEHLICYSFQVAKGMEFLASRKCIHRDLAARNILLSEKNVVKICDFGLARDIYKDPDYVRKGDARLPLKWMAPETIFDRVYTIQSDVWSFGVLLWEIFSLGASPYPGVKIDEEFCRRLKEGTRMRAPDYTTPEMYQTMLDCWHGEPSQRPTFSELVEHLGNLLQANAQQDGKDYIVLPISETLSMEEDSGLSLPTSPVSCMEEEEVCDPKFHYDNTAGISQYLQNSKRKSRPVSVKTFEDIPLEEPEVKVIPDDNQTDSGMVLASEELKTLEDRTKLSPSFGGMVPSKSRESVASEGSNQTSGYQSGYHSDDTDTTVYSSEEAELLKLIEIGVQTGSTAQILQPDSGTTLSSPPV
T1 sequence (P12931 whole entry): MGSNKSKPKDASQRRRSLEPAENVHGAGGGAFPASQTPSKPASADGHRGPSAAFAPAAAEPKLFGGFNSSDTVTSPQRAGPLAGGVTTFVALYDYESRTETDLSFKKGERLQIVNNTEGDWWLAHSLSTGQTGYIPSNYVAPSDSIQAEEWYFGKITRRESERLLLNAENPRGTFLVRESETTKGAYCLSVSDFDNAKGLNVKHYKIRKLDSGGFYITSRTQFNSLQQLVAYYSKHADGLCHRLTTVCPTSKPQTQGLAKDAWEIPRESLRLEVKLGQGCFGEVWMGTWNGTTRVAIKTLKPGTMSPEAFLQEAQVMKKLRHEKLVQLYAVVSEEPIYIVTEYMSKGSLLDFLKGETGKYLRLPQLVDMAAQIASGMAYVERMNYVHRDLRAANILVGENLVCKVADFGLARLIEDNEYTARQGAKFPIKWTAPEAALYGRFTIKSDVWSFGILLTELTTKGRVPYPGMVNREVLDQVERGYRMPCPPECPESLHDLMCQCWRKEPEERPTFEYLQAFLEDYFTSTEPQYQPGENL

| SMILES | IC50 (human c-Src) | IC50 (VEGFR2) |
| --- | --- | --- |
| O=C(Nc1ccc(Cl)c(C(=O)Nc2cnc(Nc3ccc(C(=O)N4CCN(CCO)CC4)nc3)nc2)c1)c1cccc(C(F)(F)F)c1 | 0.0019 µM | 0.0031 µM |
| Cc1ccc(NC(=O)c2cccc(C(F)(F)F)c2)cc1C(=O)Nc1cnc(Nc2ccc(S(=O)(=O)CCCN3CCCC3)cc2)nc1 | 0.0038 µM | 0.0142 µM |
| O=C(Nc1ccc(Cl)c(C(=O)Nc2cnc(Nc3ccc(C(=O)NCCN4CCCC4)nc3)nc2)c1)c1cccc(C(F)(F)F)c1 | 0.005 µM |  |
| Cc1ccc(NC(=O)c2cccc(C(F)(F)F)c2)cc1C(=O)Nc1cnc(Nc2ccc(C(=O)NCCN3CCCC3)nc2)nc1 | 0.0041 µM | 0.021 µM |
| O=C(NCCN1CCCC1)c1ccc(Nc2ncc(NC(=O)c3cc(NC(=O)c4cccc(C(F)(F)F)c4)ccc3Cl)cn2)cc1 | 0.0014 µM | 0.0022 µM |
| Cc1ccc(NC(=O)c2c(F)cc(F)cc2F)cc1C(=O)Nc1cnc(Nc2cccc(CCCN3CCCC3)c2)nc1 | 0.102 µM |  |
| Cc1ccc(NC(=O)c2cccc(C(F)(F)F)c2)cc1C(=O)Nc1cnc(Nc2ccc(C(=O)NCCN3CCCC3)cc2)nc1 | 0.0017 µM |  |
| CN1CCN(C(=O)c2ccc(Nc3ncc(NC(=O)c4cc(NC(=O)c5cccc(C(F)(F)F)c5)ccc4Cl)cn3)cc2)CC1 | 0.0017 µM | 0.0023 µM |
| CN1CCN(C(=O)c2ccc(Nc3ncc(NC(=O)c4cc(NC(=O)c5cccnc5)ccc4Cl)cn3)cc2)CC1 | 0.0932 µM |  |
| Cc1ccc(NC(=O)c2cccc(C(F)(F)F)c2)cc1Nc1cnc(Nc2cccc(CCCN3CCCC3)c2)nc1 | 0.755 µM |  |
| O=C(Nc1ccc(Cl)c(C(=O)Nc2cnc(Nc3ccc(OCCN4CCCC4)cc3)nc2)c1)c1cccc(F)c1 | 0.003 µM | 0.0407 µM |
| Cc1cccc(C(=O)Nc2ccc(Cl)c(C(=O)Nc3cnc(Nc4ccc(S(=O)(=O)CCCN5CCCC5)cc4)nc3)c2)c1 | 0.0116 µM |  |
| Cc1ccc(NC(=O)Nc2cccc(C(F)(F)F)c2)cc1C(=O)Nc1cnc(Nc2cccc(OCCN3CCCC3)c2)nc1 | 0.0018 µM | 0.0731 µM |
| Cc1ccc(NC(=O)c2ccccc2)cc1C(=O)Nc1cnc(Nc2cccc(OCCN3CCCC3)c2)nc1 | 0.0166 µM |  |
| O=C(Nc1ccc(Cl)c(C(=O)Nc2cnc(Nc3ccc(S(=O)(=O)C4CCNCC4)cc3)nc2)c1)c1cccs1 | 0.0382 µM |  |
| N#Cc1ccc(C(=O)Nc2ccc(Cl)c(C(=O)Nc3cnc(Nc4ccc(S(=O)(=O)C5CCNCC5)cc4)nc3)c2)cc1 | 0.032 µM |  |
| COc1ccc(C(=O)Nc2ccc(Cl)c(C(=O)Nc3cnc(Nc4ccc(S(=O)(=O)C5CCNCC5)cc4)nc3)c2)cc1 | 0.0175 µM |  |
| O=C(Nc1cnc(Nc2cccnc2)nc1)c1cc(Nc2ccc3ccccc3n2)ccc1Cl | 0.454 µM |  |
| Cc1ccc(NC(=O)C(C)(C)C)cc1C(=O)Nc1cnc(Nc2ccc(OCCN3CCCC3)cc2)nc1 | > 10 µM |  |
| Cc1ccc(NC(=O)Nc2ccccc2)cc1C(=O)Nc1cnc(Nc2ccc(OCCN3CCCC3)cc2)nc1 | 0.0045 µM | 0.168 µM |
| O=C(Nc1ccc(Cl)c(C(=O)Nc2cnc(Nc3ccc(S(=O)(=O)C4CCNCC4)cc3)nc2)c1)c1cc(C(F)(F)F)ccc1F | 0.0042 µM | 0.0223 µM |
| O=C(Nc1ccc(Cl)c(C(=O)Nc2cnc(Nc3ccc(S(=O)(=O)C4CCNCC4)cc3)nc2)c1)c1cccc(Cl)c1 | 0.0025 µM | 0.0116 µM |
| Cc1ccc(NC(=O)Nc2cccc(C(F)(F)F)c2)cc1C(=O)Nc1cnc(Nc2cccnc2)nc1 | 0.0079 µM | 0.0278 µM |
| O=C(Nc1cnc(Nc2ccc(S(=O)(=O)CCCN3CCCC3)cc2)nc1)c1cccc(NC(=O)c2cccc(C(F)(F)F)c2)c1 | 0.0674 µM |  |
| O=C(Nc1cnc(Nc2ccc(OCCN3CCCC3)cc2)nc1)c1cc(NC(=O)C2CCCCC2)ccc1Cl | 0.0194 µM |  |
| Cc1ccc(NC(=O)Cc2cccc(C(F)(F)F)c2)cc1C(=O)Nc1cnc(Nc2cccnc2)nc1 | 0.0569 µM |  |
| O=C(Nc1cnc(Nc2cccc(OCCN3CCCC3)c2)nc1)c1cc(Nc2ccccn2)ccc1Cl | 0.169 µM |  |
| O=C(Nc1ccc(C(=O)Nc2cnc(Nc3cccc(OCCN4CCCC4)c3)nc2)c(Cl)c1)c1cccc(C(F)(F)F)c1 | 0.0657 µM |  |
| CCOC(=O)c1cccc(Nc2ncc(NC(=O)c3cc(NC(=O)c4cccc(C(F)(F)F)c4)ccc3Cl)cn2)c1 | 0.0134 µM |  |
| Nc1ncc(NC(=O)c2cc(NC(=O)c3cccc(C(F)(F)F)c3)ccc2Cl)cn1 | 0.072 µM |  |
